Results from ChEMBL document CHEMBL3046710, “Synthesis and bioactivity evaluation of novel spiromesifen derivatives” (2012).
Converted amounts (≈) assume the structure as drawn. The source made the active and inactive calls. No cut-off for these calls is given here.

Columns and labels:
Mythimna separata [1] = test: Insecticidal activity against third-instar larvae of Mythimna separata (Oriental armyworm) assessed as mortality at 25 mg/L after 72 hr by spray method; format: functional, organism-based
Mythimna separata [2] = test: Insecticidal activity against third-instar larvae of Mythimna separata (Oriental armyworm) assessed as mortality at 100 mg/L after 72 hr by spray method; format: functional, organism-based
Tetranychus cinnabarinus [3] = test: Acaricidal activity against adult Tetranychus cinnabarinus (carmine spider mite) assessed as mortality after 72 hr by immersion method; format: functional
Aphis fabae [4] = test: Insecticidal activity against third-instar nymph of Aphis fabae (black bean aphids) assessed as mortality after 72 hr by spray method; format: functional; conditions: for LC50: Aphis fabae, 72 h
Mythimna separata [5] = test: Insecticidal activity against third-instar larvae of Mythimna separata (Oriental armyworm) assessed as mortality after 72 hr by spray method; format: functional
Aphis fabae [6] = test: Insecticidal activity against third-instar nymph of Aphis fabae (black bean aphids) assessed as mortality at 4 mg/L after 72 hr by spray method; format: functional
Tetranychus cinnabarinus [7] = test: Acaricidal activity against adult Tetranychus cinnabarinus (carmine spider mite) assessed as mortality at 6.25 mg/L after 72 hr by immersion method; format: functional
Mythimna separata [8] = test: Insecticidal activity against third-instar larvae of Mythimna separata (Oriental armyworm) assessed as mortality at 1000 mg/L after 72 hr by spray method; format: functional
Tetranychus cinnabarinus [9] = test: Ovolarvicidal activity against […] Tetranychus cinnabarinus (carmine spider mite) assessed as reduction in hatched eggs measured 6 days after hatching by immersion method; format: functional; conditions: for LC50: Tetranychus cinnabarinus, 144 h
Tetranychus cinnabarinus [10] = test: Acaricidal activity against adult Tetranychus cinnabarinus (carmine spider mite) assessed as mortality at 600 mg/L after 72 hr by immersion method; format: functional

Cc1cc(C)c(C2=C(C(=O)c3ccccc3Cl)C3(CCCC3)OC2=O)c(C)c1 was tested, and the Activity (Mythimna separata [1]) was “inactive”, the Activity (Mythimna separata [2]) was “Active” and the LC50 (Tetranychus cinnabarinus [3]) was over 600 µg/mL. The LC50 (Aphis fabae [4]) was 5 µg/mL (≈ 12.7 µM) and the LC50 (Mythimna separata [5]) was 26 µg/mL (≈ 65.8 µM).

For COC1=C(c2c(C)cc(C)cc2C)C(=O)OC12CCCC2, the LC50 (Tetranychus cinnabarinus [3]) was over 600 µg/mL, the LC50 (Aphis fabae [4]) was over 500 µg/mL and the LC50 (Mythimna separata [5]) was over 1000 µg/mL.

In the case of Cc1cc(C)c(C2=C(C(=O)/C=C/c3ccccc3)C3(CCCC3)OC2=O)c(C)c1, the Activity (Mythimna separata [1]) is reported as “inactive”, the Activity (Mythimna separata [2]) is reported as “Active” and the LC50 (Tetranychus cinnabarinus [3]) is reported as 101 µg/mL (≈ 261 µM). It also gave an LC50 (Aphis fabae [4]) of 5 µg/mL (≈ 12.9 µM) and an LC50 (Mythimna separata [5]) of 26 µg/mL (≈ 67.3 µM).

Work on CO/N=C(/C(=O)C1=C(c2c(C)cc(C)cc2C)C(=O)OC12CCCC2)c1ccccc1 yielded an LC50 (Tetranychus cinnabarinus [3]) of 26 µg/mL (≈ 62.3 µM), an LC50 (Aphis fabae [4]) of 21 µg/mL (≈ 50.3 µM) and an LC50 (Mythimna separata [5]) of 26 µg/mL (≈ 62.3 µM).

In the case of C/C=C/C(=O)C1=C(c2c(C)cc(C)cc2C)C(=O)OC12CCCC2, the LC50 (Tetranychus cinnabarinus [3]) is reported as 6.26 µg/mL (≈ 19.3 µM), the LC50 (Aphis fabae [4]) is reported as 21 µg/mL (≈ 64.7 µM) and the LC50 (Mythimna separata [5]) is reported as 101 µg/mL (≈ 311 µM).

In the case of CCOC(=O)OC1=C(c2cc(C)ccc2C)C(=O)N[C@]12CC[C@@H](OC)CC2 [SPIROTETRAMAT], the mortality at 4 µg/mL (Aphis fabae [6]) is reported as 37.9%, the LC90 (Aphis fabae [4]) is reported as 13.56 µg/mL (≈ 36.3 µM) and the LC50 (Aphis fabae [4]) is reported as 5.06 µg/mL (≈ 13.5 µM).

With CCC(C)(C)C(=O)C1=C(c2c(C)cc(C)cc2C)C(=O)OC12CCCC2 the LC50 (Tetranychus cinnabarinus [3]) was 6.26 µg/mL (≈ 17.7 µM), the LC50 (Aphis fabae [4]) was 21 µg/mL (≈ 59.2 µM) and the LC50 (Mythimna separata [5]) was 101 µg/mL (≈ 285 µM).

In the case of COc1ccc(C(=O)C2=C(c3c(C)cc(C)cc3C)C(=O)OC23CCCC3)cc1, the LC50 (Tetranychus cinnabarinus [3]) is reported as 1 µg/mL (≈ 2.56 µM), the LC50 (Aphis fabae [4]) is reported as 21 µg/mL (≈ 53.8 µM) and the LC50 (Mythimna separata [5]) is reported as 26 µg/mL (≈ 66.6 µM). For the same molecule, the mortality at 6.25 µg/mL (Tetranychus cinnabarinus [7]) was 55.2%.

For Cc1cc(C)c(C2=C(C(=O)C(c3ccc(Cl)cc3)C(C)C)C3(CCCC3)OC2=O)c(C)c1 (centres undefined), the LC50 (Tetranychus cinnabarinus [3]) was 101 µg/mL (≈ 224 µM), the LC50 (Aphis fabae [4]) was 101 µg/mL (≈ 224 µM) and the LC50 (Mythimna separata [5]) was 401 µg/mL (≈ 889 µM).

For Cc1ccc(C(=O)C2=C(c3c(C)cc(C)cc3C)C(=O)OC23CCCC3)cc1, the LC50 (Tetranychus cinnabarinus [3]) was over 600 µg/mL, the LC50 (Aphis fabae [4]) was over 500 µg/mL and the LC50 (Mythimna separata [5]) was over 1000 µg/mL.

In the case of Cc1cc(C)c(C2=C(C(=O)CC(C)(C)C)C3(CCCC3)OC2=O)c(C)c1, the LC50 (Tetranychus cinnabarinus [3]) is reported as 26 µg/mL (≈ 73.3 µM), the LC50 (Aphis fabae [4]) is reported as 5 µg/mL (≈ 14.1 µM) and the LC50 (Mythimna separata [5]) is reported as 101 µg/mL (≈ 285 µM).

Work on CCOC1=C(c2c(C)cc(C)cc2C)C(=O)OC12CCCC2 yielded an LC50 (Tetranychus cinnabarinus [3]) of over 600 µg/mL, an LC50 (Aphis fabae [4]) of over 500 µg/mL and an LC50 (Mythimna separata [5]) of over 1000 µg/mL.

For CCCCCCC(=O)C1=C(c2c(C)cc(C)cc2C)C(=O)OC12CCCC2, the LC50 (Tetranychus cinnabarinus [3]) was 26 µg/mL (≈ 70.6 µM), the LC50 (Aphis fabae [4]) was 5 µg/mL (≈ 13.6 µM) and the LC50 (Mythimna separata [5]) was 101 µg/mL (≈ 274 µM).

For Cc1cc(C)c(C2=C(C(=O)c3ccc(F)cc3)C3(CCCC3)OC2=O)c(C)c1, the LC50 (Tetranychus cinnabarinus [3]) was 101 µg/mL (≈ 267 µM), the LC50 (Aphis fabae [4]) was 21 µg/mL (≈ 55.5 µM) and the LC50 (Mythimna separata [5]) was 101 µg/mL (≈ 267 µM).

CCC(C)(C)C(=O)OC1=C(c2ccc(Cl)cc2Cl)C(=O)OC12CCCCC2 [SPIRODICLOFEN] showed a mortality at 4 µg/mL (Aphis fabae [6]) of 0%.

With CCCCC(=O)C1=C(c2c(C)cc(C)cc2C)C(=O)OC12CCCC2 the mortality at 1000 µg/mL (Mythimna separata [8]) was 100%, the mortality at 4 µg/mL (Aphis fabae [6]) was 55.5% and the LC50 (Tetranychus cinnabarinus [3]) was 6.26 µg/mL (≈ 18.4 µM). The LC50 (Aphis fabae [4]) was 1 µg/mL (≈ 2.94 µM) and the LC50 (Mythimna separata [5]) was 26 µg/mL (≈ 76.4 µM).

Cc1cc(C)c(C2=C(OC(=O)CC(C)(C)C)C3(CCCC3)OC2=O)c(C)c1 [SPIROMESIFEN] showed a mortality at 4 µg/mL (Aphis fabae [6]) of 10.9%, an LC50 (Tetranychus cinnabarinus [3]) of 6.26 µg/mL (≈ 16.9 µM) and an LC50 (Aphis fabae [4]) of 5 µg/mL (≈ 13.5 µM). It also gave an LC50 (Mythimna separata [5]) of 101 µg/mL (≈ 273 µM), an LC90 (Tetranychus cinnabarinus [9]) of 31.07 µg/mL (≈ 83.9 µM) and an LC50 (Tetranychus cinnabarinus [9]) of 4.32 µg/mL (≈ 11.7 µM).

With Cc1cc(C)c(C2=C(C(=O)C3C(C=C(Cl)Cl)C3(C)C)C3(CCCC3)OC2=O)c(C)c1 (centres undefined) the LC50 (Tetranychus cinnabarinus [3]) was over 600 µg/mL, the LC50 (Aphis fabae [4]) was 100 µg/mL (≈ 224 µM) and the LC50 (Mythimna separata [5]) was 401 µg/mL (≈ 896 µM).

C=CC(=O)C1=C(c2c(C)cc(C)cc2C)C(=O)OC12CCCC2 gave an LC50 (Tetranychus cinnabarinus [3]) of 101 µg/mL (≈ 325 µM), an LC50 (Aphis fabae [4]) of 5 µg/mL (≈ 16.1 µM) and an LC50 (Mythimna separata [5]) of 26 µg/mL (≈ 83.8 µM).

CCc1c(C)cc(OC2=C(c3c(C)cc(C)cc3C)C(=O)OC23CCCC3)cc1C was tested, and the LC50 (Tetranychus cinnabarinus [3]) was over 600 µg/mL, the LC50 (Aphis fabae [4]) was over 500 µg/mL and the LC50 (Mythimna separata [5]) was over 1000 µg/mL.

CCC(=O)C1=C(c2c(C)cc(C)cc2C)C(=O)OC12CCCC2 showed an LC50 (Tetranychus cinnabarinus [3]) of 6.26 µg/mL (≈ 20 µM), an LC50 (Aphis fabae [4]) of 21 µg/mL (≈ 67.2 µM) and an LC50 (Mythimna separata [5]) of 101 µg/mL (≈ 323 µM).

With CCCCCC(=O)C1=C(c2c(C)cc(C)cc2C)C(=O)OC12CCCC2 the mortality at 1000 µg/mL (Mythimna separata [8]) was 100%, the Activity (Mythimna separata [1]) was “inactive” and the mortality at 4 µg/mL (Aphis fabae [6]) was 95.6%. The Activity (Mythimna separata [2]) was “Active”, the LC50 (Tetranychus cinnabarinus [3]) was 6.26 µg/mL (≈ 17.7 µM) and the LC90 (Aphis fabae [4]) was 21.77 µg/mL (≈ 61.4 µM). The LC50 (Aphis fabae [4]) was 1 µg/mL (≈ 2.82 µM), the LC50 (Mythimna separata [5]) was 26 µg/mL (≈ 73.3 µM) and the LC90 (Tetranychus cinnabarinus [9]) was 56.08 µg/mL (≈ 158 µM). The LC50 (Tetranychus cinnabarinus [9]) was 11.8 µg/mL (≈ 33.3 µM).

Molecule Cc1cc(C)c(C2=C(C(=O)c3ccccc3C)C3(CCCC3)OC2=O)c(C)c1 has an LC50 (Tetranychus cinnabarinus [3]) of 101 µg/mL (≈ 270 µM), an LC50 (Aphis fabae [4]) of 5 µg/mL (≈ 13.4 µM) and an LC50 (Mythimna separata [5]) of 26 µg/mL (≈ 69.4 µM).

Work on CCCC(=O)C1=C(c2c(C)cc(C)cc2C)C(=O)OC12CCCC2 yielded a mortality at 1000 µg/mL (Mythimna separata [8]) of 100%, an LC50 (Tetranychus cinnabarinus [3]) of 6.26 µg/mL (≈ 19.2 µM) and an LC50 (Aphis fabae [4]) of 5 µg/mL (≈ 15.3 µM). It also gave a mortality at 600 µg/mL (Tetranychus cinnabarinus [10]) of 96.6% and an LC50 (Mythimna separata [5]) of 26 µg/mL (≈ 79.6 µM).
